PMC9781217, “Discovery of Novel and Selective G-Protein Coupled Receptor 120 (GPR120) Agonists for the Treatment of Type 2 Diabetes Mellitus” (Molecules, 2022)
Where two headings read alike, the source gives them in different places.

Legend:
[1] = Pharmacokinetic analysis in C57BL/6 mice; type: in vivo
Procedure: The pharmacokinetic profiles of 10k and 14d were obtained from C57BL/6 mice. […] The pharmacokinetic profiles traces were shown in the Supplementary Materials (Figure S1, see Supporting Materials).
Plasma was collected and precipitated using two volumes of acetonitrile containing an internal standard. This was followed by centrifugation at 15.680 g for 10 min after vortexing for 5 min. The supernatant was diluted with acetonitrile and 10 µL of the supernatant was analyzed by Waters LC-PDA-MS/MS to determine plasma drug levels. Pharmacokinetic parameters were determined using mean data from four mice at each time point. Statistical analysis of the data was performed using the DAS 2.1.1 statistical software program (BioVoice, Shanghai, China).

[2] = system: C57BL/6 mice; assay: Oral glucose tolerance test (OGTT) in normal C57BL/6 mice; type: in vivo
Procedure: GPR120 agonists have been reported to increase GLP-1 secretion and improve glucose tolerance in vivo [28]. […] Compound 14d was orally administered at doses of 3, 10, 30, and 100 mg/kg, 30 min before the oral glucose challenge at a dose volume of 3 g/kg. Glucose levels were measured from 30 min before glucose challenge to 120 min after the glucose challenge.
Normal male C57BL/6 mice aged 9 weeks were used for the OGTT for compound 14d. C57BL/6 mice were weighed and randomly divided into six groups (eight mice per group) after 12 h of fasting. The test compounds were dissolved in 0.5% MC and vortexed before the study initiation. […] The exact dose volume was calculated separately for each animal. Blood samples were collected via the tail tip 30 min before the compound dose, at t = 0 (immediately before glucose loading), and 15, 30, 60, and 120 min after glucose loading. Blood glucose levels were measured using blood glucose test strips (Sannuo GA-3 type; Changsha, China). Glucose values were entered into an Excel sheet and plotted using GraphPad Prism software.

[3] = system: DIO mice; assay: Anti-hyperglycemic effects (OGTT, insulin) in DIO mice; type: in vivo, C57BL/6 mice; details: 20 mg/kg oral
Procedure: Blood samples were collected with retro-orbital sinus puncture, and glucose levels were measured in accordance with the OGTT in normal mice. Plasma insulin levels were measured using a mouse insulin RIA kit (Beijing North Institute of Biological Technology, Beijing, China).

[4] = target: T1, human GPR120 (hGPR120) (Homo sapiens, UniProt Q5NUL3); assay: Calcium flux assay in hGPR120-transfected CHO cells
T1 sequence (Q5NUL3 1-361): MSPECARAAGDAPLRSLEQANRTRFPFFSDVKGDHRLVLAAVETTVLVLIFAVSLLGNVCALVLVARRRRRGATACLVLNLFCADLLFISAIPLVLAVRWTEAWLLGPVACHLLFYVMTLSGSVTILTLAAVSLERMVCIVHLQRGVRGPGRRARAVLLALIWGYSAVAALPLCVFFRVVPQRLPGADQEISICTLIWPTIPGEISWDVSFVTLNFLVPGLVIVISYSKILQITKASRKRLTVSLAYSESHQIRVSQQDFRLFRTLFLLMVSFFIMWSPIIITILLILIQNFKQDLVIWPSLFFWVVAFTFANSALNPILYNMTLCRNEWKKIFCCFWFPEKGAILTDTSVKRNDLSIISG
Procedure: (§1) A calcium flux assay was performed to assess the agonist activity of the test compounds against the hGPR120 (mGPR120) and hGPR40 (mGPR40) receptors. […] The medium in the wells was gently discarded, and the wells were washed with Hank’s balanced salt solution (HBSS; 100 μL per well). […] The cells were then washed thrice in HBSS and allowed to equilibrate for 10 min before conducting the assay. Test compounds dissolved in dimethyl sulfoxide were diluted in HBSS at various concentrations and added to Fluo-4 AM-containing cells, and intracellular Ca^2+ concentrations were measured using FlexStation3 Molecular Devices. The EC50 value of each compound was calculated using GraphPad Prism software (version 5.0; GraphPad Software, San Diego, CA, USA).

[5] = target: mouse GPR40 (mGPR40) (Mus musculus, UniProt Q76JU9); assay: Calcium flux assay in CHO cells expressing mouse GPR40
Procedure: as §1

[6] = target: T2, mouse GPR120 (mGPR120) (Mus musculus, UniProt Q7TMA4); assay: Calcium flux assay in CHO cells expressing mouse GPR120
T2 sequence (Q7TMA4 1-361): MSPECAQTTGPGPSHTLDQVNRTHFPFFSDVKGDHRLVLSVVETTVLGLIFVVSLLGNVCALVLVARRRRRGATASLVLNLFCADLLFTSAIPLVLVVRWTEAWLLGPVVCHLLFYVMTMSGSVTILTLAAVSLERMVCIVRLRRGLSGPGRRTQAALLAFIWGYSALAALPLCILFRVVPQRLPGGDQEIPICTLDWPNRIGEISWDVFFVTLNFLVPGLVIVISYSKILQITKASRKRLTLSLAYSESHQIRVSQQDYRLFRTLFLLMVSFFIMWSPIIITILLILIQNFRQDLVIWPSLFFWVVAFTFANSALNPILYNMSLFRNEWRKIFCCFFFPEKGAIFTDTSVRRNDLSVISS
Procedure: as §1

[7] = hGPR120, concentration response curve
[8] = mGPR120, concentration response curve

Sequence of mouse GPR40 (mGPR40) (Q76JU9 whole entry): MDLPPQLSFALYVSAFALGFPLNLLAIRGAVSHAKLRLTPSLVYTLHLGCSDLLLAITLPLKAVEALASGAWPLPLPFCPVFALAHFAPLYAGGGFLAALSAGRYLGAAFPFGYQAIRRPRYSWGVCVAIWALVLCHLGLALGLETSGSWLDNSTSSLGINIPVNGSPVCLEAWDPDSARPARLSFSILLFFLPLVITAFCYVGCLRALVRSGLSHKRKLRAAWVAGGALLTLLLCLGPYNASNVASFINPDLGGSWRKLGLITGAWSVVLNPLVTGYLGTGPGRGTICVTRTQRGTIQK

Q: Which “metabolic stability in vivo” value ([1]; C57BL/6 mice, pharmacokinetics, in words) does the source give for `O=C(O)CCCOc1ccc(COc2cc(F)ccc2-c2ccc(F)cc2)cc1F` [Compound 14d, 4-(4-(((4,4′-difluoro-[1,1′-biphenyl]-2-yl)oxy)methyl)-2-fluorophenoxy)butanoic acid] here?
A: Its value is “excellent metabolic stability”.

Q: And the Tmax ([1]; male, mouse, plasma, po, C57BL/6 mice, 10 mg/kg gavage)?
A: Its Tmax is 0.5 h.

Q: What about the Cmax ([1]; male, mouse, plasma, po, C57BL/6 mice, 10 mg/kg gavage, 0.5% MC, mean ± SD of four mice) of the same compound?
A: The Cmax was 2650 ± 288 ng/mL.

Q: And the AUC ([1]; male, mouse, plasma, po, C57BL/6 mice, 10 mg/kg gavage, mean ± SD of four mice)?
A: The AUC was 5900 ± 584 ng·h/mL.

Q: And the half-life ([1]; male, mouse, plasma, po, C57BL/6 mice, 10 mg/kg gavage, mean ± SD of four mice, read-out: t1/2 (converted))?
A: Its half-life is 1.6 ± 0.4 h.

Q: And the clearance ([1]; rodents, in words)?
A: The clearance was “low clearance”.

Q: And the half-life ([1]; rodents, in words)?
A: Its half-life is “long half-life”.

Q: What about the “blood glucose in OGTT” value ([2]; 30 mg/kg oral, glucose 3 g/kg, superior to TUG-891) of the same compound?
A: Its value is “significant reduction in blood glucose”.

Q: And the “dose dependence of glucose lowering and glucose AUC” value ([2]; 3, 10, 30, 100 mg/kg oral)?
A: Its value is “dose-dependent”.

Q: What about the “reduction of plasma glucose AUC” value ([2]; OGTT, 30 mg/kg oral, after 120 min, compared with glucose alone, p < 0.001) of the same compound?
A: The value was 25%.

Q: And the “hypoglycemia during OGTT” value ([2]; normal C57BL/6 mice, during the experiment)?
A: Its value is “no hypoglycemia was observed”.

Q: What about the hypoglycemic side effects ([2]; normal mice, even at a dose of 100 mg/kg) of the same compound?
A: Its hypoglycemic side effects is “no hypoglycemic side effects were detected”.

Q: And the “insulin levels 30 min after the glucose challenge” value ([3]; compared to vehicle-treated mice)?
A: The value was “significantly increased insulin levels”.

Q: And the “glucose AUC0–120 min” value ([3]; glucose 2 g/kg)?
A: Its value is “significantly lower than that of vehicle-treated mice”.

Q: And the melting point?
A: Its melting point is 89 to 91 °C.

Q: What about the EC50 [4] of the same compound?
A: Its EC50 is 37.5 nM.

Q: What about the Hill slope [4, 7] of the same compound?
A: Its Hill slope is 0.9540.

Q: What about the “Hill slope (95%CI)” value [4, 7] of the same compound?
A: The value was 0.8259-1.0820.

Q: What about the “Agonist type from dose-dependent curves” value ([4]; hGPR120 and mGPR120) of the same compound?
A: The value was “full agonist”.

Q: What about the EC50 [5] of the same compound?
A: The EC50 was 12700 nM.

Q: And the EC50 [6]?
A: The EC50 was 83.2 nM.

Q: What about the Hill slope [6, 8] of the same compound?
A: Its Hill slope is 0.7745.

Q: And the “Hill slope (95%CI)” value [6, 8]?
A: The value was 0.5397-1.0090.

Q: And the Selectivity ([6]; mGPR120 over mGPR40)?
A: Its Selectivity is 152.6.
